According to article PMC7602742, “Physiologically-Based Pharmacokinetic/Pharmacodynamic Model of MBQ-167 to Predict Tumor Growth Inhibition in Mice” (Pharmaceutics, 2020):

How the values were obtained:
[1] = Physicochemical properties (PBPK model inputs); settings: model input
Excerpt: The molecular weight of MBQ-167 is 338.414 g/mol and the water partition coefficient (logPoctanol:water) ratio is 4.944. […] The fu in plasma was estimated to 0.02. B/P ratio was initially estimated in the base PBPK model development phase and then optimized using a local sensitivity analysis (LSA) with a final value of 1.8.

[2] = Intrinsic clearance from in vitro hepatocytes; type: in vitro ADME; settings: in vitro determined, read-out: Hep intrinsic CL
Excerpt: (§1) Due to the limited information of any active process in MBQ-167 renal excretion and/or tubular reabsorption, it was assumed that renal excretion was only mediated by glomerular filtration.

[3] = Metabolism on incubation in liver microsomes; type: in vitro ADME; settings: incubated in liver microsomes
Excerpt: as §1

[4] = molecular target: T1, CYP1A2 (Homo sapiens, UniProt P05177); assay: CYP inhibition; type: in vitro ADME
T1 sequence (P05177 1-516): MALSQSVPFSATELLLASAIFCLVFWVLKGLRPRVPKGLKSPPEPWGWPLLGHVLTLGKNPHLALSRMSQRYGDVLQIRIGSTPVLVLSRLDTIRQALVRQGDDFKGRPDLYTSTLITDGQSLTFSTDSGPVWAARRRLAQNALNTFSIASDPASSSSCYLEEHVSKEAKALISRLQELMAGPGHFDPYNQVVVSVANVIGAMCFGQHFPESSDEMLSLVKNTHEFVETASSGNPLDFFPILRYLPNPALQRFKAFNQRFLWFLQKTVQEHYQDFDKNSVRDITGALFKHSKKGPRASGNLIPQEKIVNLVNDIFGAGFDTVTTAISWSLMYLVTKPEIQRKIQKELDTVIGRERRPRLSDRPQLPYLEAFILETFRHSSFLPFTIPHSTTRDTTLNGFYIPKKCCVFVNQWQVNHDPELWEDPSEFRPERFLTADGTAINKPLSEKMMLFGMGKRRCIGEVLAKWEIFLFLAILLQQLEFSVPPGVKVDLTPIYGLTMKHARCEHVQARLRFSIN
Excerpt: as §1

[5] = molecular target: CYP2C19 (Homo sapiens, UniProt P33261); assay: CYP inhibition; type: in vitro ADME
Excerpt: as §1

[6] = molecular target: CYP2C9 (Homo sapiens, UniProt P11712); assay: CYP inhibition; type: in vitro ADME
Excerpt: as §1

[7] = molecular target: CYP3A4 (Homo sapiens, UniProt P08684); assay: CYP inhibition; type: in vitro ADME
Excerpt: as §1

[8] = Plasma and tissue pharmacokinetics after single IP dose (observed); type: in vivo; settings: female, BALB/c, mouse, single IP 10 mg/kg, mice; for AUC(0-t): read-out: AUC obs (AUC0-t)
Experimental: All animal studies were conducted under approved animal protocols (#A8180117, #A8180112) by the University of Puerto Rico Medical Sciences Campus Institutional Animal Care and Use Committee, in accordance with the principles and procedures outlined in the NIH Guideline for the Care and Use of Laboratory Animals. Four to five-week-old female BALB/c mice (Charles River Laboratories, Inc. Wilmington, MA, USA) were housed under pathogen-free conditions in HEPA-filtered cages and kept on a 12 h light/dark cycle, and controlled temperature (22–24 °C), and humidity (25%). Food and water were given ad libitum. MBQ-167 was prepared as a stock solution of 2 mg/mL in Cremophor®:ethanol:PBS (12.5:12.5:75) solution. Each mouse was administered a single 0.1 mL dose of MBQ-167 (in 12.5% ethanol, 12.5% Cremophor®, 75% phosphate buffered saline, pH 7.4) that corresponded to 10 mg/kg body weight (BW) by IP injection.
We used a validated bioanalytical method using supercritical fluid chromatography coupled with tandem mass spectrometry to quantify MBQ-167 in tumors and tissues, as previously described. The analysis was performed on an Acquity UPC^2 system (Waters Corp., Milford, MA, USA) coupled to a triple quadrupole tandem mass spectrometer (MS/MS). An Acquity UPC^2 BEH (3.0 × 100 mm^2, 1.7 μm) column was used for separation purposes.
The final MBQ-167 PBPK model was verified through both graphical and numerical analysis. Experimental and predicted longitudinal plasma concentration- (Cp) and tissue concentration- (Ct) profiles were generated, including the 95% confidence intervals (95% CI) of the observations at each sampling time and the mean predicted concentrations. LSA was performed to evaluate the relative impact of B/P, fu, CLR, CLtumor and PS in the plasma PK exposure parameters (AUC0-t and Cmax). The performance of the MBQ-167 PBPK model was assessed by the fold error at each tissue, which referred to the ratio of the predicted AUC0-t or Cmax to the observed AUC0-t or Cmax, respectively (Equation (1)). AUC0-t was calculated by the trapezoidal rule. Both graphical and numerical analyses were performed in RStudio version 1.2.5019 (Boston, MA, USA, 2019) with R version 3.5.1 (GNU project). (1) Fold ERROR PK parameter=Predicted PK parameter/Observed PK parameter

[9] = Tumor pharmacokinetics in 4T1 tumor-bearing mice (observed); type: in vivo; settings: BALB/c, mouse, tumor (4T1), single IP 10 mg/kg
Experimental: Thirty-five BALB/c mice were injected with 2.5 × 10^5 4T1 murine metastatic breast cancer cells at the mammary fat pad under isoflurane inhalation (1–3% in oxygen using an inhalation chamber at 2 L/min) to produce primary tumors, as described. Following IP treatment with a single dose of MBQ-167 (10 mg/kg), five mice/group were sacrificed by cervical dislocation at 0.5, 1, 3, 6, 9,12, and 24 h. Following sacrifice, tumors were collected and flushed with normal saline, individually wrapped in aluminum foil, snap-frozen in liquid nitrogen, and stored frozen at −80 °C until use.
Tumor samples were extracted by liquid-liquid extraction method, as previously described by. Briefly, frozen tumors were thawed, weighed (100 mg), and homogenized using the Polytron PT 2100 instrument in pH 7.4 saline (1:4 w/v). […]
We used a validated bioanalytical method using supercritical fluid chromatography coupled with tandem mass spectrometry to quantify MBQ-167 in tumors and tissues, as previously described. […]
The final MBQ-167 PBPK model was verified through both graphical and numerical analysis. […] The performance of the MBQ-167 PBPK model was assessed by the fold error at each tissue, which referred to the ratio of the predicted AUC0-t or Cmax to the observed AUC0-t or Cmax, respectively (Equation (1)). AUC0-t was calculated by the trapezoidal rule. […]

[10] = test system: GFP-MDA-MB-231 (TNBC) mammary fat pad tumors; assay: Triple Negative tumor growth study (observed); type: in vivo, athymic nude (nu/nu) mice; settings: 10 mg/kg BW IP three times a week for 108 days
Experimental: As published elsewhere, female athymic nude (nu/nu) mice, 4 to 5 weeks old (Charles River Laboratories, Inc., Wilmington, MA, USA) were maintained under pathogen-free conditions in HEPA-filtered cages (5 mice per cage) under controlled light (12 h light and dark cycle), temperature (22–24 °C), and humidity (25%).
Mammary fat pad tumors were established using green fluorescent protein (GFP)-tagged MDA-MB-435 (HER2++) cells in Matrigel (BD Biosciences, San Jose, CA, USA) or GFP-MDA-MB-231 (TNBC) cells by injecting at the fourth right mammary fat pad under isofluorane inhalation (1–3% in oxygen using an inhalation chamber at 2 L/min) to produce orthotopic primary tumors. […]
Mammary tumor growth was quantified as changes in the integrated density of green fluorescent protein (GFP) fluorescence. […] The FluorVivo small animal in vivo imaging system (INDEC Systems, Inc., Santa Clara, CA, USA) was used for whole body imaging of GFP fluorescence. Tumor fluorescence intensities were analyzed using Image J software (National Institutes of Health, Bethesda, MD, USA, 2019, Version 1.52q 13). Relative tumor growth was calculated as the integrated density of fluorescence of each tumor on each day of imaging relative to the integrated density of fluorescence of the same tumor on day 1 of treatment administration, relative to vehicle controls.

[11] = test system: Cdc42; set-up: method as in PMID 28450422; settings: inhibition of GTPase activation; read-out: half-maximal inhibitory concentration (IC50) for Cdc42; cited from earlier work
[12] = set-up: method as in PMID 31720502; settings: cited from earlier work
[13] = test system: mammary fat pad tumor and metastases; settings: cited from earlier work
[14] = cited from earlier work

CYP2C19, sequence (P33261 whole entry): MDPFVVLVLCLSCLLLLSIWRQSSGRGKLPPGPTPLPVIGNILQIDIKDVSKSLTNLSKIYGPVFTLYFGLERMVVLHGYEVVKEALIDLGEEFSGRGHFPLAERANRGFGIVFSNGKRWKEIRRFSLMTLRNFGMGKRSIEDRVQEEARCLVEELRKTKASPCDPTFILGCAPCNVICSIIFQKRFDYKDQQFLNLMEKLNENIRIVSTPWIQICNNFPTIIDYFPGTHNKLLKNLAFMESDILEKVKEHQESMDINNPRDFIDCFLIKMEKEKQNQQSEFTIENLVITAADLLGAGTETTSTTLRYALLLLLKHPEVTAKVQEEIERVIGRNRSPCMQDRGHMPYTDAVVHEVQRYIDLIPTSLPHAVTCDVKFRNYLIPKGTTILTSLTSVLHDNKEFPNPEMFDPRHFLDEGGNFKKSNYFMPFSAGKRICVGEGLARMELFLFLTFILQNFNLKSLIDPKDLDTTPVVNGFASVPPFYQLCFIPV
CYP2C9, sequence (P11712 whole entry): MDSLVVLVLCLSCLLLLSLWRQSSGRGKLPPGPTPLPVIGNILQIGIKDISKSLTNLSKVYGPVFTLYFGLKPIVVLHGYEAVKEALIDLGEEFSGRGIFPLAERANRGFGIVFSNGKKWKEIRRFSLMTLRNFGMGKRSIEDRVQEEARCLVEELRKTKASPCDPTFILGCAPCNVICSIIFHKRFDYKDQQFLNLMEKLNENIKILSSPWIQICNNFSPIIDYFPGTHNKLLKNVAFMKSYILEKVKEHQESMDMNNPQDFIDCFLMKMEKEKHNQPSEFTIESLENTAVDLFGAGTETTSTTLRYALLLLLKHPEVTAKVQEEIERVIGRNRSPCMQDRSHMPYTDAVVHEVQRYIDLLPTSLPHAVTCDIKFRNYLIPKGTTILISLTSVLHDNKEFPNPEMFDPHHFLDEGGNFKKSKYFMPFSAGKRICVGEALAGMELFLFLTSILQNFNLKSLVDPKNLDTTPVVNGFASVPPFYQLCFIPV
CYP3A4, sequence (P08684 whole entry): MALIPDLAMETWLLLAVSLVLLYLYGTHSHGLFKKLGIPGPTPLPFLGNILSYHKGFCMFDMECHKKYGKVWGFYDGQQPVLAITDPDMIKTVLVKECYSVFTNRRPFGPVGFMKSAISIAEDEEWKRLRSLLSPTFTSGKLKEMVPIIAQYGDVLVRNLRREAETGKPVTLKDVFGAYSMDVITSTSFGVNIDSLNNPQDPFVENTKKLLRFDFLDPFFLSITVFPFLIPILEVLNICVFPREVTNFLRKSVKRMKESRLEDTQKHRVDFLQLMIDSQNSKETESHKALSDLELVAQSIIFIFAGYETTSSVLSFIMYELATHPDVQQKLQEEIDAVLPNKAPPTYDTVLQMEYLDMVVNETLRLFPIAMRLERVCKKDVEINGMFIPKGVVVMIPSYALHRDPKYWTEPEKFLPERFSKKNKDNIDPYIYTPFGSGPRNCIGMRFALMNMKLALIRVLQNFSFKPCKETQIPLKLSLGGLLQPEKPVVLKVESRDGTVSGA

With `CCn1c2ccccc2c2cc(-n3nncc3-c3ccccc3)ccc21` [MBQ-167] the “Compound Type” value [1] was “Monoprotic Base”, the pKa ([1]; source not stated) was 0.27 and the “logPo:w” value ([1]; octanol:water, source not stated) was 4.944. The hepatocyte CLint [2] was 79 µL/min/1e6 cells, the metabolites formed [3] was “up to nine metabolites” and the CYP1A2 inhibition [4] was “inhibits”. The CYP2C19 inhibition [5] was “inhibits”, the CYP2C9 inhibition [6] was “inhibits” and the CYP3A4 inhibition [7] was “inhibits”. For the same molecule, the Cmax ([8]; heart) was 841 ng/mL, the AUC(0-t) ([8]; heart) was 949 ng·h/mL and the Cmax ([8]; kidneys) was 11200 ng/mL. It also gave an AUC(0-t) ([8]; kidneys) of 34300 ng·h/mL, a Cmax ([8]; liver) of 4790 ng/mL and an AUC(0-t) ([8]; liver) of 8390 ng·h/mL. It also gave a Cmax ([8]; lung) of 1540 ng/mL, an AUC(0-t) ([8]; lung) of 1890 ng·h/mL and a Cmax ([8]; plasma) of 840 ng/mL. It also gave an AUC(0-t) ([8]; plasma) of 1420 ng·h/mL, a Cmax ([8]; spleen) of 1690 ng/mL and an AUC(0-t) ([8]; spleen) of 3980 ng·h/mL. For the same molecule, the Cmax [9] was 1240 ng/mL, the AUC(0-t) ([9]; read-out: AUC obs (AUC0-t)) was 10300 ng·h/mL and the “observed relative reduction in the final tumor size” value [10] was 87.0%. For the same molecule, the IC50 [11] was […], the “volume of distribution reported in the literature” value ([12]; mice of 20 g body weight) was 400 mL and the “systemic plasma clearance (reported/observed)” value ([12]; mice) was 2.15 mL/min. For the same molecule, the effect on metastases ([13]; 10 mg/kg BW, mice) was “total inhibition of metastases”, the “start of mammary fat pad tumor size reduction after treatment” value ([13]; 10 mg/kg BW, mice) was “approximately 3 weeks” and the toxicity in vivo ([13]; preclinical studies) was “without apparent toxicity”.

In the case of `O=c1cc(CN2CCOCC2)occ1OCCCCCSc1ccnc2cc(C(F)(F)F)ccc12` [EHT1864], the t1/2 [14] is given as 1.65 h.

In the case of `CCn1c2ccccc2c2cc(Nc3ccnc(NCCCN4CCOCC4)n3)ccc21` [EHop-016], the t1/2 [14] is listed as 5.73 h.
